From EP0178388A1, “Quinolinecarboxylic acid derivatives” (KYORIN PHARMACEUTICAL CO., LTD., priority 1984, dated 1986)
In brackets after ≈: the same amount, converted by molar mass. Like-named read-outs stand apart in the source and are kept apart here.

What was measured:
[1] = system: Bacillus subtilis PCI 219; experiment: In vitro antibacterial activity, MIC (standard strain); type: cell-based; settings: PCI219
[2] = system: Escherichia coli NIHJ JC-2; experiment: as above; type: cell-based; settings: NIHJJC2, Escherichia coli NIHJ JC-2, 10^6 cells/ml
[3] = system: Proteus vulgaris IFO 3167; experiment: as above; type: cell-based; settings: IFO3167
P. morganii IID 602 = experiment: as above; type: cell-based; settings: Morganella morganii, IID602
[4] = system: Klebsiella pneumoniae I-220S; experiment: as above; type: cell-based; settings: Klebsiella pneumoniae
K. pneumoniae KY(GN)6445 = experiment: as above; type: cell-based; settings: Klebsiella pneumoniae
[5] = system: Citrobacter freundii IID 976; experiment: as above; type: cell-based; settings: IID976
Shigella sonnei IID 969 = experiment: as above; type: cell-based; settings: IID969, Shigella sonnei IID 969, 10^6 cells/ml
Description: (§1) The in vitro antibacterial activity has been investigated, the minimun inhibitory concentration (MIC) was determined in accordance with the method recommended by Japan Society of Chemotherapy.

[6] = system: Salmonella enteritidis IID 604; experiment: as above; type: cell-based; settings: Salmonella enterica
[7] = system: Pseudomonas aeruginosa V-1; experiment: as above; type: cell-based; settings: V1
[8] = system: Yersinia enterocolitica IID 981; experiment: as above; type: cell-based; settings: IID981
[9] = system: Acinetobacter anitratus IID 876; experiment: as above; type: cell-based; settings: Acinetobacter calcoaceticus, IID876
[10] = system: Bacteroides fragilis GM 7000; experiment: as above; type: cell-based; settings: GM7000
B. fragilis 0558 = experiment: as above; type: cell-based; settings: Bacteroides fragilis, 0558
B. fragilis 25285 = experiment: as above; type: cell-based; settings: Bacteroides fragilis, 25285
[11] = system: B. thetaiotaomicron (0661); experiment: as above; type: cell-based; settings: Bacteroides thetaiotaomicron
C. ramosum = experiment: as above; type: cell-based; settings: Thomasclavelia ramosa
E. coli ML4707 [12] = experiment: In vivo antibacterial activity against systemic infection in mice;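 note: ED50 in mg/kg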; settings: Escherichia coli, ML4707, po, 1 h, E. coli ML4707, mice (ICR-S), intraperitoneal infection, oral at 1 hour after infection
Description: (§2) Experiment 2 In vivo antibacterial activity against systemic infection in mice (ICR-S)
(§3) The infections were produced by intraperitoneal infection of a suspension of the bacterial culture corresponding to the germ studied. The product was administered orally at 1 hour after the infection. The 50% effective dose (ED50) which protects 50% of the animals from death caused by the infection was determined from the relation between dosage and survival rate.

P. aeruginosa IID 1210 = experiment: as above; design: species or system mice (ICR-S); settings: Pseudomonas aeruginosa, IID1210, po, 1 h;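 note: ED50 in mg/kg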
Description: as §2, §3

S. aureus Smith = experiment: as above; design: species or system mice (ICR-S); settings: Staphylococcus aureus, po, 1 h;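 note: ED50 in mg/kg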
Description: as §2, §3

S. pneumoniae S-4288 = experiment: as above; design: species or system mice (ICR-S); settings: Streptococcus pneumoniae, S4288, po, 1 h
Description: as §2, §3

[13] = system: Staphylococcus aureus 209 P; experiment: In vitro antibacterial activity, MIC (standard strain); type: cell-based; settings: 10^6 cells/ml, read-out: MIC
[14] = system: S. aureus IID 670 (Terajima); experiment: as above; type: cell-based; settings: Staphylococcus aureus, IID670, 10^6 cells/ml
S. epidermidis IID 866 = experiment: as above; type: cell-based; settings: Staphylococcus epidermidis, IID866, S. epidermidis IID 866, 10^6 cells/ml
E. coli ATCC 10536 = experiment: as above; type: cell-based; settings: Escherichia coli, ATCC10536; E. coli ATCC 10536, 10^6 cells/ml, standard strain; read-out: MIC
P. mirabilis IID 994 = experiment: as above; type: cell-based; settings: Proteus mirabilis, IID994, P. mirabilis IID 994, 10^6 cells/ml
[15] = system: Enterobacter cloacae IID 977; experiment: as above; type: cell-based; settings: IID977, Enterobacter cloacae IID 977, 10^6 cells/ml
[16] = system: Serratia marcescens IID 618; experiment: as above; type: cell-based; settings: IID618, Serratia marcescens IID 618, 10^6 cells/ml, read-out: MIC
P. aeruginosa IFO 12689 = experiment: as above; type: cell-based; settings: Pseudomonas aeruginosa, IFO12689
[17] = system: Alcaligenes faecalis 0114002; experiment: as above; type: cell-based; settings: Alcaligenes faecalis 0114002, 10^6 cells/ml
B. distasonis 8503 = experiment: as above; type: cell-based; settings: Parabacteroides distasonis, B. distasonis 8503, 10^6 cells/ml
[18] = system: F. varium KYA (ATCC) 8501; experiment: as above; type: cell-based; settings: Fusobacterium varium, F. varium KYA (ATCC) 8501, 10^6 cells/ml
[19] = system: Clostridium difficile I-E; experiment: as above; type: cell-based; settings: Clostridioides difficile, 10^6 cells/ml
[20] = system: C. perfringens KYA (ATCC) 13123; experiment: microbe, parasite or virus in culture; type: cell-based; settings: Clostridium perfringens
[21] = system: Peptostreptococcus anaerobius KYA 27337; experiment: In vitro antibacterial activity, MIC (standard strain); type: cell-based; settings: KYA27337, Peptostreptococcus anaerobius KYA 27337, 10^6 cells/ml
Pst. micros UPI 5464-1 = experiment: as above; type: cell-based; settings: Parvimonas micra, UPI54641, Pst. micros UPI 5464-1, 10^6 cells/ml
[22] = system: Veillonella parvula KYA 10790; experiment: as above; type: cell-based; settings: KYA10790, Veillonella parvula KYA 10790, 10^6 cells/ml
E. coli ML4707 [23] = experiment: MIC against the infecting strain (Table 2); type: cell-based; settings: Escherichia coli; E. coli ML4707 (Table 2, parts 1 and 2)
Description: as §1

O=C(O)c1cn(C2CC2)c2cc(N3CCNCC3)c(F)cc2c1=O [CFLX, 1-Cyclopropyl-6-fluoro-1,4-dihydro-4-oxo-7-(1-piperazinyl)-quinoline-3-carboxylic acid, reference compound]
MIC ([1]; Bacillus subtilis): 0.05 mg/L (≈ 0.151 µM)
MIC [2]: ≤ 0.006 mg/L
MIC ([3]; Proteus vulgaris): ≤ 0.006 mg/L
MIC (P. morganii IID 602): 0.05 mg/L (≈ 0.151 µM)
MIC [4]: 0.05 mg/L (≈ 0.151 µM)
MIC (K. pneumoniae KY(GN)6445): 0.025 mg/L (≈ 0.0754 µM)
MIC ([5]; Citrobacter freundii): ≤ 0.006 mg/L
MIC (Shigella sonnei IID 969): ≤ 0.006 mg/L
MIC [6]: 0.025 mg/L (≈ 0.0754 µM)
MIC ([7]; Pseudomonas aeruginosa): 0.2 mg/L (≈ 0.604 µM)
MIC ([8]; Yersinia enterocolitica): 0.05 mg/L (≈ 0.151 µM)
MIC [9]: 0.025 mg/L (≈ 0.0754 µM)
MIC ([10]; Bacteroides fragilis): 3.13 mg/L (≈ 9.45 µM)
MIC (B. fragilis 0558): 3.13 mg/L (≈ 9.45 µM)
MIC (B. fragilis 25285): 3.13 mg/L (≈ 9.45 µM)
MIC [11]: 3.13 mg/L (≈ 9.45 µM)
MIC (C. ramosum): 3.13 mg/L (≈ 9.45 µM)
ED50 (E. coli ML4707 [12]; challenge dose 6.0 x 10^6 cfu/mouse (part 1)): 0.67 mg/kg
ED50 (E. coli ML4707 [12]; challenge dose 8.3 x 10^6 cfu/mouse (part 2)): 0.75 mg/kg
ED50 (P. aeruginosa IID 1210): 8 mg/kg
ED50 (S. aureus Smith): 12.8 mg/kg
ED50 (S. pneumoniae S-4288): > 100 mg/kg

CC1CN(c2c(F)cc3c(=O)c(C(=O)O)cn(C4CC4)c3c2F)CC(C)N1 (stereo not drawn) [Example 4, 1-Cyclopropyl-6,8-difluoro-1,4-dihydro-7-(3,5-dimethyl-l-piperazinyl)-4-oxoquinoline-3-carboxylic acid]
MIC ([1]; Bacillus subtilis PCI 219, 10^6 cells/ml, standard strain, read-out: MIC): 0.05 mg/L (≈ 0.132 µM)
MIC [13]: 0.2 mg/L (≈ 0.53 µM)
MIC [14]: 0.2 mg/L (≈ 0.53 µM)
MIC (S. epidermidis IID 866): 0.39 mg/L (≈ 1.03 µM)
MIC [2]: ≤ 0.025 mg/L
MIC (E. coli ATCC 10536): ≤ 0.006 mg/L
MIC ([3]; Proteus vulgaris IFO 3167, 10^6 cells/ml, standard strain, read-out: MIC): 0.025 mg/L (≈ 0.0662 µM)
MIC (P. mirabilis IID 994): 0.1 mg/L (≈ 0.265 µM)
MIC (P. morganii IID 602; P. morganii IID 602, 10^6 cells/ml, standard strain, read-out: MIC): 0.1 mg/L (≈ 0.265 µM)
MIC (K. pneumoniae KY(GN)6445; K. pneumoniae KY(GN)6445, 10^6 cells/ml, standard strain, read-out: MIC): 0.025 mg/L (≈ 0.0662 µM)
MIC [15]: 0.05 mg/L (≈ 0.132 µM)
MIC ([5]; Citrobacter freundii IID 976, 10^6 cells/ml, standard strain, read-out: MIC): 0.025 mg/L (≈ 0.0662 µM)
MIC [16]: 0.1 mg/L (≈ 0.265 µM)
MIC (Shigella sonnei IID 969): 0.0125 mg/L (≈ 0.0331 µM)
MIC ([6]; Salmonella enteritidis IID 604, 10^6 cells/ml, standard strain, read-out: MIC): 0.05 mg/L (≈ 0.132 µM)
MIC ([7]; Pseudomonas aeruginosa V-1, 10^6 cells/ml, standard strain, read-out: MIC): 0.39 mg/L (≈ 1.03 µM)
MIC (P. aeruginosa IFO 12689): 1.56 mg/L (≈ 4.13 µM)
MIC ([8]; Yersinia enterocolitica IID 981, 10^6 cells/ml, standard strain, read-out: MIC): 0.1 mg/L (≈ 0.265 µM)
MIC ([9]; Acinetobacter anitratus IID 876, 10^6 cells/ml, standard strain, read-out: MIC): 0.006 mg/L (≈ 0.0159 µM)
MIC [17]: 0.2 mg/L (≈ 0.53 µM)
MIC ([10]; Bacteroides fragilis GM 7000, 10^6 cells/ml, standard strain, read-out: MIC): 3.13 mg/L (≈ 8.29 µM)
MIC (B. fragilis 0558): 1.56 mg/L (≈ 4.13 µM)
MIC (B. fragilis 25285): 1.56 mg/L (≈ 4.13 µM)
MIC (B. distasonis 8503): 3.13 mg/L (≈ 8.29 µM)
MIC ([11]; B. thetaiotaomicron (0661), 10^6 cells/ml, standard strain, read-out: MIC): 6.25 mg/L (≈ 16.6 µM)
MIC [18]: 12.5 mg/L (≈ 33.1 µM)
MIC [19]: 12.5 mg/L (≈ 33.1 µM)
MIC [20]: 1.56 mg/L (≈ 4.13 µM)
MIC [21]: 3.13 mg/L (≈ 8.29 µM)
MIC (Pst. micros UPI 5464-1): 0.39 mg/L (≈ 1.03 µM)
MIC [22]: 0.39 mg/L (≈ 1.03 µM)
MIC (E. coli ML4707 [23]): 0.0125 mg/L (≈ 0.0331 µM)
ED50 (E. coli ML4707 [12]; challenge dose 6.0 x 10^6 cfu/mouse (part 1), read-out: ED50): 0.13 mg/kg
